Results from patent US10781229B2, “Tris- or neopentyl glycol-based amphiphiles and uses thereof” (Industry-University Cooperation Foundation Hanyang …, priority 2015, dated 2020).
Values belong to the compound of their own block, whether it stands above or below them.

Tests used:
LeuT E192C^TMR = LeuT E192C^TMR (Aquifex aeolicus, UniProt O67854, E192C); assay: Site-directed fluorescence (iodide) quenching of LeuT E192C-TMR, Stern-Volmer analysis; format: biochemical
From the text: A principle of this experiment is as follows: A cysteine residue was inserted into a 192th LeuT site (E192C), followed by coupling with a thiol-reactive fluorophore (tetramethylrhodamine-5-maleimide, TMR). The prepared LeuT E192C^TMR, as TMR-coupled LeuT, is an excellent system to sensitively monitor protein structure change in response to ligand coupling. […] Due to such change, TMR fluorescence molecules exposed to an aqueous solution become closer to iodide (I^−), as a quencher dissolved in water, whereby strong fluorescence quenching is caused. TMR quenching intensity by leucine coupling may be represented by Stern-Volmer plotting and thus structural flexibility of a protein may be directly measured. Ligand bindability of the TMR-labeled transporter was measured using SPA while increasing the amount of [^3H]leucine.
In particular, structure, expression, purification, and fluorescence labeling were performed according to the following methods. In accordance with a method disclosed in a paper published by C. B. Billesbolle, et al. (J. Biol. Chem. 2015, 290, 26725-26738), a leucine transporter mutant (LeuT E192C^TMR) was produced and purification and labeling were carried out. In summary, a residue of the E192 was mutated with cysteine using QuikChange (Agilent Technologies) such that fluorescence coupling was accomplished by maleimide labeling. The LeuT mutant was expressed in E. coli C41 (DE3). A membrane of DE3 was disrupted and LeuT was solubilized with 1% (w/v) DDM. Subsequently, LeuT solubilized with the amphipathic molecule was fixed to a Chelating Sepharose Fast Flow resin (GE Healthcare, Little Chalfont, UK), followed by washing with tetramethylrhodamine-5-maleimide (TMR, Life Technologies, Carlsbad, Calif., USA) at 4° C. for 16 hours. Subsequently, LeuT was eluted with a buffer containing 300 mM imidazole, 20 mM Tris-HCl (pH 8.0), 1 mM NaCl, 199 mM KCl, and 0.05% DDM.
Fluorescence spectroscopy was carried out according to the following method. A fluorescence-based experiment was carried out by diluting 0.5 μg ml^−1 of fluorescence-labeled LeuT with buffer A supplemented with CMC+0.04% by weight of DDM, MNG-3 or NDT-C11. Leucine was separately added to specimen aliquots of LeuT for each concentration and incubated for one hour in a room temperature shaker. Steady-state fluorescence intensities were recorded with a FluoroMax4 (Horiba Scientific, Edison, N.J., USA) at λem=572 nm and excitation source at λex=552 nm at 25° C. Quencher-titration was carried out by successive additions of small specimen aliquots containing 1 M KI into buffer A supplemented with 10 mM Na2S2O3. Fluorescence intensities (F) were corrected for sample dilution and normalized to the initial intensity (F0) of a sample. All data was analyzed by linear-(Stern-Volmer plot) or nonlinear regression in GraphPad Prism 6.0 (GraphPad Software). The degree of iodide (I^−) accessibility was obtained from the following Stern-Volmer equation: F0/F=1+Ksv×[Q], where F0/F is normalized fluorescence quenching, Ksv is a Stern-Volmer constant, and [Q] is quencher concentration. When means are calculated as a log, the means are shown as pIC50 and the [s.e.m. interval] from pIC50±s.e.m.
Values of radioligand binding constants were calculated through SPA saturation binding experiments. Values of iodide quenching-response constants and ΔKSV were calculated from a site-directed fluorescence quenching spectroscopy. The affinity (Kd) is shown as means±s.e.m and ΔKSV is shown as means [s.e.m. interval]. All data is shown as means of three to four independent experiments.

[1] = Hydrodynamic radius and size distribution of micelles by dynamic light scattering (DLS); format: physicochemical
Method: A method of measuring the radius of a micelle is not specifically limited and may be any method generally known in the art. For example, the radius may be measured by a dynamic light scattering (DLS) experiment.
In particular, critical micellar concentrations (CMCs) were measured using hydrophobic fluorescence staining and diphenylhexatriene (DPH), and hydrodynamic radii (Rh) of micelles formed of each material were measured by a dynamic light scattering (DLS) experiment. Measured results are compared to values of DDM as an existing amphipathic molecule (detergent).
Meanwhile, size distributions of the micelles formed of TDTs and NDTs were measured using DLS. Results are illustrated in FIG. 5. TDTs or NDTs were respectively used in an amount of 0.5% by weight. As a result, micelles of TDTs or NDTs were measured as forming a single community.

[2] = test system: leucine transporter (LeuT); assay: LeuT stability by [3H]-Leu scintillation proximity assay (SPA); format: biochemical, Aquifex aeolicus; conditions: CMC+0.2% by weight, room temperature
Method: Experiments to measure the structural stability of a leucine transporter (LeuT) protein by TDTs or NDTs were conducted. LeuT protein activity was measured by scintillation proximity assay (SPA) utilizing [^3H]-Leu as a ligand. The concentration of TDTs, NDTs, or DDM was (a) CMC+0.04% by weight, or (b) CMC+[…].
In particular, the LeuT stability measurement experiments were conducted according to the following methods. Depending upon the results of UapA and MelB, only TDT-C11, TDT-C12, NDT-C10, NDT-C11 and NDT-C12 among the amphipathic molecules according to the present invention were selectively used. In accordance with a method disclosed in a paper published by G. Deckert, et al. (Nature 1998, 392, 353-358), a wild-type leucine transporter (LeuT) was purified from Aquifex aeolicus. LeuT is expressed in E. coli C41 (DE3) transformed with pET16b encoding a C-terminal 8×His-tagged transporter (the expression plasmid was provided by Dr E. Gouaux, Vollum Institute, Portland, Oreg., USA). In summary, the […] protein was isolated and solubilized with 1.0% by weight of DDM, followed by binding the protein to a Ni^2+-NTA resin (Life Technologies, Denmark) and eluting the same with 20 mM Tris-HCl (pH 8.0), 1 mM NaCl, 199 mM KCl, 0.05% DDM, and 300 mM imidazole. Next, about 1.5 mg/ml of a protein stock was 10-fold diluted with a buffer in which DDM and imidazole are absent, but TDTs, NDTs, or DDM (control) is supplemented such that a final concentration becomes CMC+0.04% by weight or CMC+0.2% by weight. Protein samples were stored at room temperature and centrifuged at a predetermined time. To evaluate protein activity, [^3H]-Leu coupling was measured using scintillation proximity assay (SPA) (M. Quick et al., Proc. Natl, Acad. Sci. U.S.A. 2007, 104, 3603-3608). 5 μL of each protein sample dissolved in a buffer that contained 200 mM NaCl and each test compound was analyzed. SPA reaction was carried out in the presence of 20 nM [^3H]-Leu and copper chelate (His-Tag) YSi beads (both purchased from PerkinElmer, Denmark). [^3H]-Leu coupling was measured by means of a MicroBeta liquid scintillation counter (PerkinElmer).

[3] = target: T1, melibiose permease (MelB), MelBSt (Salmonella typhimurium, UniProt P30878); assay: MelB extraction efficiency and stability by SDS-PAGE and western immunoblotting; conditions: 1.5% by weight; for MelB protein solubilization effect versus temperature: 0 to 45° C. and above; for MelB protein extraction efficiency from membrane: 0° C.
T1 construct: made in house; host or cells: 'Salmonella typhimurium DW2 cell (melB and lacZY)', plasmid pK95AHB/WT MelBSt/CH10
Method: Experiments to measure the extraction efficiency and structural stability of a Salmonella typhimurium melibiose permease (MelB) protein by TDTs or NDTs were conducted. The MelB protein was extracted using TDTs, NDTs, or DDM and then the amounts and structures of extracted proteins were quantitatively analyzed by SDS-PAGE and western immunoblotting. The concentrations of the used amphipathic molecules were 1.5% by weight. Protein extraction was carried out at four temperatures (0, 45, 55 or 65° C.) for 90 minutes to simultaneously evaluate the protein extraction efficiency and stabilization ability of the amphipathic molecules.
In particular, in accordance with a method disclosed in a paper (P. S. Chae, et al., Chemistry. 2013, 19, 15645-15651) published by the present inventors, a protein (MelBSt) was produced using a pK95AHB/WT MelBSt/CH10 plasmid and a Salmonella typhimurium DW2 cell (melB and lacZY) to encode wild-type MelB having a 10-His tag at a C-terminal. In accordance with a method disclosed in a paper (Nat. Commun. 2014, 5, 3009) published by A. S. Ethayathulla, et al., cell proliferation and membrane preparation was carried out. Protein analysis was performed using a Micro BCA kit (Thermo Scientific, Rockford, Ill.). So as to measure the solubilization/stability of MelBSt, a membrane sample including MelBSt (final protein concentration of 10 mg/mL) was mixed with a solubilization buffer (20 mM sodium phosphate, pH 7.5, 200 mM NaCl, 10% glycerol, and 20 mM melibiose) and 1.5% (w/v) DDM, TDTs or NDTs. An extracted product was incubated at four temperatures (0, 45, 55 and 65° C.) for 90 minutes. Ultracentrifugation was carried out for 45 minutes at 4° C. and 355,590 g by means of a Beckman Optima™ MAX ultracentrifuge and a TLA-100 rotor. Subsequently, 20 μg of a protein was separated by SDS-16% PAGE and then subjected to immunoblotting with a Penta-His-HRP antibody (Qiagen, Germantown, Md.).

T1 sequence (P30878 whole entry): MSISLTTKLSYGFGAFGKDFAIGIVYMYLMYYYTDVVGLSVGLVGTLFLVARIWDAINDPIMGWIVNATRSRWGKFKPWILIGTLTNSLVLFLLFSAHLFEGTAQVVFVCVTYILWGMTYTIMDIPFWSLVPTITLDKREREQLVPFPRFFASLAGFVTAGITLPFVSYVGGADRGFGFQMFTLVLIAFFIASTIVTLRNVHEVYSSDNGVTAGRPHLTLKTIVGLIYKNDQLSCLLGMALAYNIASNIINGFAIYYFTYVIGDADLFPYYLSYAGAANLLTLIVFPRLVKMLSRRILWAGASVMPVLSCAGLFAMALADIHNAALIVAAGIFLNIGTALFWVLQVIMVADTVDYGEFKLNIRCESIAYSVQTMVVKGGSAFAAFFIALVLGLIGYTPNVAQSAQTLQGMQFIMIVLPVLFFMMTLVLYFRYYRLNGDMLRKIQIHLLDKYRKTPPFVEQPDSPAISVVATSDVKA

- Rh (hydrodynamic radius of micelles) [1]: 3.1 ± 0.1 nm
Compound: CCCCCCCCCC(CCCCCCCCC)COCC(CO[C@@H]1OC(CO)[C@@H](O)C(O)C1O)(CO[C@@H]1OC(CO)[C@@H](O)C(O)C1O)CO[C@@H]1OC(CO)[C@@H](O)C(O)C1O (stereo partly shown) [NDT-C9]

- Rh (hydrodynamic radius of micelles) [1]: 3.2 ± 0.1 nm
- LeuT protein stabilization ability ([3H]-Leu binding) [2]: excellent
Compound: CCCCCCCCCCC(CCCCCCCCCC)COCC(CO[C@@H]1OC(CO)[C@@H](O)C(O)C1O)(CO[C@@H]1OC(CO)[C@@H](O)C(O)C1O)CO[C@@H]1OC(CO)[C@@H](O)C(O)C1O (stereo partly shown) [NDT-C10]

- Rh (hydrodynamic radius of micelles) [1]: 3.4 ± 0.4 nm
Compound: CCCCCCCCCC(CCCCCCCCC)C(=O)NC(CO[C@@H]1OC(CO)[C@@H](O)C(O)C1O)(CO[C@@H]1OC(CO)[C@@H](O)C(O)C1O)CO[C@@H]1OC(CO)[C@@H](O)C(O)C1O (stereo partly shown) [TDT-C9]

- Rh (hydrodynamic radius of micelles) [1]: 4.5 ± 0.2 nm
Compound: CCCCCCCCCCC(CCCCCCCCCC)C(=O)NC(CO[C@@H]1OC(CO)[C@@H](O)C(O)C1O)(CO[C@@H]1OC(CO)[C@@H](O)C(O)C1O)CO[C@@H]1OC(CO)[C@@H](O)C(O)C1O (stereo partly shown) [TDT-C10]

More lines, now with the values behind:

Compound: CCCCCCCCCCC(CCCCCCCCCC)(CO[C@@H]1O[C@H](CO)[C@@H](O[C@H]2O[C@H](CO)[C@@H](O)[C@H](O)[C@H]2O)[C@H](O)[C@H]1O)CO[C@@H]1O[C@H](CO)[C@@H](O[C@H]2O[C@H](CO)[C@@H](O)[C@H](O)[C@H]2O)[C@H](O)[C@H]1O [MNG-3]
- Structural fluidity of the LeuT protein (LeuT E192C^TMR; conclusion from ΔKsv): tends to greatly limit the structural fluidity
- Δ KSV (LeuT E192C^TMR; leucine-induced change of iodide accessibility of TMR, CMC+0.04% by weight detergent, means [s.e.m. interval]): 0.4 M⁻¹

Compound: CCCCCCCCCCCCC(CCCCCCCCCCCC)COCC(CO[C@@H]1OC(CO)[C@@H](O)C(O)C1O)(CO[C@@H]1OC(CO)[C@@H](O)C(O)C1O)CO[C@@H]1OC(CO)[C@@H](O)C(O)C1O (stereo partly shown) [NDT-C12]
- Rh (hydrodynamic radius of micelles) [1]: 3.8 ± 0.4 nm
- MelB protein solubilization effect versus temperature [3]: increase with elevating temperature
- MelB protein extraction efficiency from membrane ([3]; 90 minutes): Slightly decreased solubilization effects
- LeuT protein stabilization ability ([3H]-Leu binding) [2]: excellent

Compound: CCCCCCCCCCCC(CCCCCCCCCCC)C(=O)NC(CO[C@@H]1OC(CO)[C@@H](O)C(O)C1O)(CO[C@@H]1OC(CO)[C@@H](O)C(O)C1O)CO[C@@H]1OC(CO)[C@@H](O)C(O)C1O (stereo partly shown) [TDT-C11]
- Rh (hydrodynamic radius of micelles) [1]: 37 ± 8.0 nm
- Amount of MelB protein dissolved ([3]; 55° C., 90 minutes): 65%

Compound: CCCCCCCCCCCCC(CCCCCCCCCCCC)C(=O)NC(CO[C@@H]1OC(CO)[C@@H](O)C(O)C1O)(CO[C@@H]1OC(CO)[C@@H](O)C(O)C1O)CO[C@@H]1OC(CO)[C@@H](O)C(O)C1O (stereo partly shown) [TDT-C12]
- Rh (hydrodynamic radius of micelles) [1]: 53 ± 1.2 nm
- MelB protein solubilization effect versus temperature [3]: increase with elevating temperature
- MelB protein extraction efficiency from membrane ([3]; 90 minutes): Slightly decreased solubilization effects
